Structures are written as SMILES.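 The compound was tested at five concentrations on cells cultured in 96-well plates, with a 48-hour exposure period. At the GI50, growth is halved. TGI marks complete inhibition of growth.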

The first assay relates to OVCAR-3 ovarian. The assay can be described thus: NCI-60 cell line screen, 48 h.
`COc1cc(/C=C/c2csnn2)cc(OC)c1OC`: the TGI is > 100 µM.

With `c1ccc(C(c2ccccc2)c2ccccn2)cc1`, the TGI is > 100 µM.

As to `CC(C)[C@@H]1CC[C@]2(CO2)[C@@H]2C(=O)OCC(C(=O)O)=C[C@H]21`, the GI50 was 0.47 µM and the TGI is > 100 µM.

On to `Cn1c(=O)c2nc3sc4c(n3c2n(C)c1=O)C(=O)c1ccccc1C4=O`, for which the TGI was > 50.6 µM.

With `COc1ccc(/C=C2\CCC/C(=C\c3ccc(OC)c(OC)c3)C2=O)cc1OC`, the GI50 was 2.17 µM and the TGI was > 32.5 µM.

In the case of `N#CC1CC(c2ccccc2)Nc2cc(Cl)ccc2N1` (stereo not given), the TGI was 57.1 µM.

The test system of another assay is ACHN renal. As to the kind of experiment: NCI-60 cell line screen, 48 h.
For the molecule `COc1cc(/C=C/c2csnn2)cc(OC)c1OC`, the TGI was > 100 µM.

On to `c1ccc(C(c2ccccc2)c2ccccn2)cc1`, for which the TGI is > 100 µM.

Turning to `CC(C)[C@@H]1CC[C@]2(CO2)[C@@H]2C(=O)OCC(C(=O)O)=C[C@H]21`, the GI50 is 0.43 µM and the TGI is > 100 µM.

Regarding `Cn1c(=O)c2nc3sc4c(n3c2n(C)c1=O)C(=O)c1ccccc1C4=O`, the TGI is > 54.7 µM.

Take `COc1ccc(/C=C2\CCC/C(=C\c3ccc(OC)c(OC)c3)C2=O)cc1OC`: the GI50 was 5.04 µM and the TGI was > 32.5 µM.

Regarding `N#CC1CC(c2ccccc2)Nc2cc(Cl)ccc2N1` (stereo not given), the TGI was > 100 µM.

The subject of the next assay is SK-MEL-28 melanoma. The assay can be described thus: NCI-60 cell line screen, 48 h.
As to `COc1cc(/C=C/c2csnn2)cc(OC)c1OC`, the TGI was > 100 µM.

For the molecule `c1ccc(C(c2ccccc2)c2ccccn2)cc1`, the TGI was > 100 µM.

For `CC(C)[C@@H]1CC[C@]2(CO2)[C@@H]2C(=O)OCC(C(=O)O)=C[C@H]21`, the GI50 is 0.207 µM and the TGI was 0.424 µM.

As for `Cn1c(=O)c2nc3sc4c(n3c2n(C)c1=O)C(=O)c1ccccc1C4=O`, the TGI is > 100 µM.

In the case of `COc1ccc(/C=C2\CCC/C(=C\c3ccc(OC)c(OC)c3)C2=O)cc1OC`, the GI50 was 16.7 µM and the TGI was > 32.5 µM.

In the case of `N#CC1CC(c2ccccc2)Nc2cc(Cl)ccc2N1` (stereo not given), the TGI is > 100 µM.

Another assay concerns HCT-116 colon. As to the kind of experiment: NCI-60 cell line screen, 48 h.
As for `COc1cc(/C=C/c2csnn2)cc(OC)c1OC`, the TGI was > 100 µM.

Regarding `c1ccc(C(c2ccccc2)c2ccccn2)cc1`, the TGI is > 100 µM.

Consider `CC(C)[C@@H]1CC[C@]2(CO2)[C@@H]2C(=O)OCC(C(=O)O)=C[C@H]21`, for which the GI50 was 0.325 µM and the TGI is > 100 µM.

Regarding `Cn1c(=O)c2nc3sc4c(n3c2n(C)c1=O)C(=O)c1ccccc1C4=O`, the TGI was > 71.4 µM.

For the molecule `COc1ccc(/C=C2\CCC/C(=C\c3ccc(OC)c(OC)c3)C2=O)cc1OC`, the GI50 was 1.14 µM and the TGI stood at 5.07 µM.

On to `N#CC1CC(c2ccccc2)Nc2cc(Cl)ccc2N1` (stereo not given), for which the TGI was > 100 µM.

Another assay relates to SNB-19 CNS. The assay can be described thus: NCI-60 cell line screen, 48 h.
Turning to `COc1cc(/C=C/c2csnn2)cc(OC)c1OC`, the TGI is > 100 µM.

Regarding `c1ccc(C(c2ccccc2)c2ccccn2)cc1`, the TGI was > 100 µM.

Take `CC(C)[C@@H]1CC[C@]2(CO2)[C@@H]2C(=O)OCC(C(=O)O)=C[C@H]21`: the GI50 was 0.379 µM and the TGI was > 27.1 µM.

Take `Cn1c(=O)c2nc3sc4c(n3c2n(C)c1=O)C(=O)c1ccccc1C4=O`: the TGI is > 66 µM.

On to `COc1ccc(/C=C2\CCC/C(=C\c3ccc(OC)c(OC)c3)C2=O)cc1OC`, for which the GI50 is 20.8 µM and the TGI was > 32.5 µM.

In the case of `N#CC1CC(c2ccccc2)Nc2cc(Cl)ccc2N1` (stereo not given), the TGI was > 100 µM.

For another assay, the system named is RPMI-8226 leukemia. The assay can be described thus: NCI-60 cell line screen, 48 h.
On to `COc1cc(/C=C/c2csnn2)cc(OC)c1OC`, for which the TGI was > 100 µM.

Consider `c1ccc(C(c2ccccc2)c2ccccn2)cc1`, for which the TGI was > 100 µM.

As to `CC(C)[C@@H]1CC[C@]2(CO2)[C@@H]2C(=O)OCC(C(=O)O)=C[C@H]21`, the GI50 was 0.24 µM and the TGI is 0.635 µM.

Regarding `Cn1c(=O)c2nc3sc4c(n3c2n(C)c1=O)C(=O)c1ccccc1C4=O`, the TGI is > 83.4 µM.

With `COc1ccc(/C=C2\CCC/C(=C\c3ccc(OC)c(OC)c3)C2=O)cc1OC`, the GI50 was 1.15 µM and the TGI was > 32.5 µM.

Consider `N#CC1CC(c2ccccc2)Nc2cc(Cl)ccc2N1` (stereo not given), for which the TGI is > 100 µM.

The test system of a further assay is TK-10 renal. The assay can be described thus: NCI-60 cell line screen, 48 h.
Regarding `COc1cc(/C=C/c2csnn2)cc(OC)c1OC`, the TGI is > 100 µM.

Take `c1ccc(C(c2ccccc2)c2ccccn2)cc1`: the TGI was > 100 µM.

Consider `CC(C)[C@@H]1CC[C@]2(CO2)[C@@H]2C(=O)OCC(C(=O)O)=C[C@H]21`, for which the GI50 is 0.686 µM and the TGI was > 93.5 µM.

For `Cn1c(=O)c2nc3sc4c(n3c2n(C)c1=O)C(=O)c1ccccc1C4=O`, the TGI was > 100 µM.

Regarding `COc1ccc(/C=C2\CCC/C(=C\c3ccc(OC)c(OC)c3)C2=O)cc1OC`, the GI50 was 1.4 µM and the TGI amounted to 7.33 µM.

Take `N#CC1CC(c2ccccc2)Nc2cc(Cl)ccc2N1` (stereo not given): the TGI is > 100 µM.

Another assay has as its system 786-0 renal. The assay can be described thus: NCI-60 cell line screen, 48 h.
As for `COc1cc(/C=C/c2csnn2)cc(OC)c1OC`, the TGI was > 100 µM.

With `c1ccc(C(c2ccccc2)c2ccccn2)cc1`, the TGI is > 100 µM.

As for `CC(C)[C@@H]1CC[C@]2(CO2)[C@@H]2C(=O)OCC(C(=O)O)=C[C@H]21`, the GI50 was 0.358 µM and the TGI is > 100 µM.

`Cn1c(=O)c2nc3sc4c(n3c2n(C)c1=O)C(=O)c1ccccc1C4=O`: the TGI is > 78.2 µM.

Turning to `COc1ccc(/C=C2\CCC/C(=C\c3ccc(OC)c(OC)c3)C2=O)cc1OC`, the GI50 is 5.59 µM and the TGI was > 32.5 µM.

For the molecule `N#CC1CC(c2ccccc2)Nc2cc(Cl)ccc2N1` (stereo not given), the TGI was > 100 µM.

The test system of a further assay is SK-OV-3 ovarian. As to the kind of experiment: NCI-60 cell line screen, 48 h.
Take `COc1cc(/C=C/c2csnn2)cc(OC)c1OC`: the TGI is > 100 µM.

In the case of `c1ccc(C(c2ccccc2)c2ccccn2)cc1`, the TGI is > 100 µM.

For the molecule `CC(C)[C@@H]1CC[C@]2(CO2)[C@@H]2C(=O)OCC(C(=O)O)=C[C@H]21`, the GI50 is 0.438 µM and the TGI is > 100 µM.

For `Cn1c(=O)c2nc3sc4c(n3c2n(C)c1=O)C(=O)c1ccccc1C4=O`, the TGI was > 60.9 µM.

For `COc1ccc(/C=C2\CCC/C(=C\c3ccc(OC)c(OC)c3)C2=O)cc1OC`, the GI50 was 12.1 µM and the TGI was > 32.5 µM.

Take `N#CC1CC(c2ccccc2)Nc2cc(Cl)ccc2N1` (stereo not given): the TGI is > 100 µM.

The test system of the next assay is K-562 leukemia. As to the kind of experiment: NCI-60 cell line screen, 48 h.
With `COc1cc(/C=C/c2csnn2)cc(OC)c1OC`, the TGI is > 100 µM.

For `c1ccc(C(c2ccccc2)c2ccccn2)cc1`, the TGI is > 100 µM.

Consider `CC(C)[C@@H]1CC[C@]2(CO2)[C@@H]2C(=O)OCC(C(=O)O)=C[C@H]21`, for which the GI50 is 0.334 µM and the TGI was > 100 µM.

As for `Cn1c(=O)c2nc3sc4c(n3c2n(C)c1=O)C(=O)c1ccccc1C4=O`, the TGI is > 100 µM.

With `COc1ccc(/C=C2\CCC/C(=C\c3ccc(OC)c(OC)c3)C2=O)cc1OC`, the GI50 was 2.28 µM and the TGI was > 32.5 µM.

Turning to `N#CC1CC(c2ccccc2)Nc2cc(Cl)ccc2N1` (stereo not given), the TGI was > 100 µM.

These data come from PubChem BioAssay (NCI).
